Measured values: the NIST ThermoML archive (doi:10.1021/je100237h)
Numbers after ± are expanded uncertainties.

Settings: Liquid; for viscosity: 101.33 kPa, Concentric cylinders viscometry; for mass density: Vibrating tube method

CC(C)COC(=O)CCCCC(=O)OCC(C)C [diisobutyl adipate]
Settings | viscosity [mPa·s]
283.15 K | 8.56 ± 0.19
288.15 K | 7.22 ± 0.16
293.15 K | 6.17 ± 0.13
298.15 K | 5.33 ± 0.12
303.15 K | 4.65 ± 0.1
308.15 K | 4.09 ± 0.09
313.15 K | 3.63 ± 0.08
318.15 K | 3.24 ± 0.07
323.15 K | 2.92 ± 0.06
328.15 K | 2.64 ± 0.06
333.15 K | 2.4 ± 0.05
338.15 K | 2.19 ± 0.05
343.15 K | 2.01 ± 0.04
348.15 K | 1.85 ± 0.04
353.15 K | 1.71 ± 0.04
358.15 K | 1.59 ± 0.03
363.15 K | 1.48 ± 0.03
368.15 K | 1.38 ± 0.03
373.15 K | 1.29 ± 0.03

Settings | mass density [kg/m3]
293.15 K, 100 kPa | 951.7 ± 1.9
293.15 K, 10000 kPa | 958.4 ± 1.9
293.15 K, 20000 kPa | 964.7 ± 1.9
293.15 K, 30000 kPa | 970.6 ± 2
293.15 K, 40000 kPa | 976.1 ± 2
293.15 K, 50000 kPa | 981.4 ± 2
293.15 K, 60000 kPa | 986.4 ± 2
293.15 K, 70000 kPa | 991.2 ± 2
293.15 K, 80000 kPa | 995.9 ± 2
293.15 K, 90000 kPa | 1000.3 ± 2
293.15 K, 100000 kPa | 1004.7 ± 2
293.15 K, 110000 kPa | 1008.7 ± 2.1
293.15 K, 120000 kPa | 1012.7 ± 2.1
293.15 K, 130000 kPa | 1016.6 ± 2.1
293.15 K, 140000 kPa | 1020.3 ± 2.1
303.15 K, 100 kPa | 942.8 ± 1.9
303.15 K, 10000 kPa | 949.9 ± 1.9
303.15 K, 20000 kPa | 956.4 ± 1.9
303.15 K, 30000 kPa | 962.6 ± 1.9
303.15 K, 40000 kPa | 968.3 ± 2
303.15 K, 50000 kPa | 974 ± 2
303.15 K, 60000 kPa | 979.1 ± 2
303.15 K, 70000 kPa | 984.2 ± 2
303.15 K, 80000 kPa | 989 ± 2
303.15 K, 90000 kPa | 993.4 ± 2
303.15 K, 100000 kPa | 997.8 ± 2
303.15 K, 110000 kPa | 1002.1 ± 2
303.15 K, 120000 kPa | 1006.3 ± 2.1
303.15 K, 130000 kPa | 1010.3 ± 2.1
303.15 K, 140000 kPa | 1014 ± 2.1
313.15 K, 100 kPa | 934.2 ± 1.9
313.15 K, 10000 kPa | 941.6 ± 1.9
313.15 K, 20000 kPa | 948.5 ± 1.9
313.15 K, 30000 kPa | 954.9 ± 1.9
313.15 K, 40000 kPa | 960.9 ± 1.9
313.15 K, 50000 kPa | 966.6 ± 2
313.15 K, 60000 kPa | 972.1 ± 2
313.15 K, 70000 kPa | 977.2 ± 2
313.15 K, 80000 kPa | 982 ± 2
313.15 K, 90000 kPa | 986.7 ± 2
313.15 K, 100000 kPa | 991.2 ± 2
313.15 K, 110000 kPa | 995.6 ± 2
313.15 K, 120000 kPa | 999.9 ± 2
313.15 K, 130000 kPa | 1003.9 ± 2.1
313.15 K, 140000 kPa | 1007.9 ± 2.1
323.15 K, 100 kPa | 925.6 ± 1.9
323.15 K, 10000 kPa | 933.4 ± 1.9
323.15 K, 20000 kPa | 940.5 ± 1.9
323.15 K, 30000 kPa | 947.3 ± 1.9
323.15 K, 40000 kPa | 953.7 ± 1.9
323.15 K, 50000 kPa | 959.7 ± 1.9
323.15 K, 60000 kPa | 965.2 ± 2
323.15 K, 70000 kPa | 970.6 ± 2
323.15 K, 80000 kPa | 975.6 ± 2
323.15 K, 90000 kPa | 980.5 ± 2
323.15 K, 100000 kPa | 985.3 ± 2
323.15 K, 110000 kPa | 989.8 ± 2
323.15 K, 120000 kPa | 994.2 ± 2
323.15 K, 130000 kPa | 998.3 ± 2.1
323.15 K, 140000 kPa | 1003 ± 2.1
333.15 K, 100 kPa | 916.7 ± 1.8
333.15 K, 10000 kPa | 924.9 ± 1.9
333.15 K, 20000 kPa | 932.4 ± 1.9
333.15 K, 30000 kPa | 939.3 ± 1.9
333.15 K, 40000 kPa | 945.8 ± 1.9
333.15 K, 50000 kPa | 952 ± 1.9
333.15 K, 60000 kPa | 957.8 ± 1.9
333.15 K, 70000 kPa | 963.3 ± 2
333.15 K, 80000 kPa | 968.5 ± 2
333.15 K, 90000 kPa | 973.4 ± 2
333.15 K, 100000 kPa | 978.2 ± 2
333.15 K, 110000 kPa | 982.8 ± 2
333.15 K, 120000 kPa | 987.3 ± 2
333.15 K, 130000 kPa | 991.6 ± 2.1
333.15 K, 140000 kPa | 995.7 ± 2.1
343.15 K, 100 kPa | 908.1 ± 1.8
343.15 K, 10000 kPa | 916.3 ± 1.8
343.15 K, 20000 kPa | 924.3 ± 1.9
343.15 K, 30000 kPa | 931.5 ± 1.9
343.15 K, 40000 kPa | 938.3 ± 1.9
343.15 K, 50000 kPa | 944.7 ± 1.9
343.15 K, 60000 kPa | 950.8 ± 1.9
343.15 K, 70000 kPa | 956.3 ± 1.9
343.15 K, 80000 kPa | 961.8 ± 2
343.15 K, 90000 kPa | 967 ± 2
343.15 K, 100000 kPa | 971.8 ± 2
343.15 K, 110000 kPa | 976.5 ± 2
343.15 K, 120000 kPa | 981.1 ± 2
343.15 K, 130000 kPa | 985.5 ± 2
343.15 K, 140000 kPa | 989.7 ± 2.1
353.15 K, 100 kPa | 899.3 ± 1.8
353.15 K, 10000 kPa | 908 ± 1.8
353.15 K, 20000 kPa | 916.2 ± 1.9
353.15 K, 30000 kPa | 923.7 ± 1.9
353.15 K, 40000 kPa | 930.9 ± 1.9
353.15 K, 50000 kPa | 937.7 ± 1.9
353.15 K, 60000 kPa | 943.9 ± 1.9
353.15 K, 70000 kPa | 950 ± 1.9
353.15 K, 80000 kPa | 955.5 ± 2
353.15 K, 90000 kPa | 960.8 ± 2
353.15 K, 100000 kPa | 965.7 ± 2
353.15 K, 110000 kPa | 970.5 ± 2
353.15 K, 120000 kPa | 974.9 ± 2
353.15 K, 130000 kPa | 979.5 ± 2
353.15 K, 140000 kPa | 983.7 ± 2.1
363.15 K, 100 kPa | 890.2 ± 1.8
363.15 K, 10000 kPa | 899.9 ± 1.8
363.15 K, 20000 kPa | 908.7 ± 1.8
363.15 K, 30000 kPa | 916.4 ± 1.9
363.15 K, 40000 kPa | 923.7 ± 1.9
363.15 K, 50000 kPa | 930.4 ± 1.9
363.15 K, 60000 kPa | 936.9 ± 1.9
363.15 K, 70000 kPa | 943.2 ± 1.9
363.15 K, 80000 kPa | 948.9 ± 1.9
363.15 K, 90000 kPa | 954.1 ± 2
363.15 K, 100000 kPa | 959.4 ± 2
363.15 K, 110000 kPa | 964.4 ± 2
363.15 K, 120000 kPa | 969 ± 2
363.15 K, 130000 kPa | 973.7 ± 2
363.15 K, 140000 kPa | 978.1 ± 2.1
373.15 K, 100 kPa | 882.3 ± 1.8
373.15 K, 10000 kPa | 891.5 ± 1.8
373.15 K, 20000 kPa | 900.5 ± 1.8
373.15 K, 30000 kPa | 908.6 ± 1.8
373.15 K, 40000 kPa | 916.5 ± 1.9
373.15 K, 50000 kPa | 923.3 ± 1.9
373.15 K, 60000 kPa | 930.1 ± 1.9
373.15 K, 70000 kPa | 936.4 ± 1.9
373.15 K, 80000 kPa | 942.2 ± 1.9
373.15 K, 90000 kPa | 947.8 ± 2
373.15 K, 100000 kPa | 953.2 ± 2
373.15 K, 110000 kPa | 958.2 ± 2
373.15 K, 120000 kPa | 963.2 ± 2
373.15 K, 130000 kPa | 967.8 ± 2
373.15 K, 140000 kPa | 972.5 ± 2.1
383.15 K, 100 kPa | 873.2 ± 1.8
383.15 K, 10000 kPa | 883.6 ± 1.8
383.15 K, 20000 kPa | 893.1 ± 1.8
383.15 K, 30000 kPa | 901.7 ± 1.8
383.15 K, 40000 kPa | 909.6 ± 1.9
383.15 K, 50000 kPa | 916.6 ± 1.9
383.15 K, 60000 kPa | 923.5 ± 1.9
383.15 K, 70000 kPa | 929.4 ± 1.9
383.15 K, 80000 kPa | 935.7 ± 1.9
383.15 K, 90000 kPa | 941.2 ± 1.9
383.15 K, 100000 kPa | 946.7 ± 2
383.15 K, 110000 kPa | 951.8 ± 2
383.15 K, 120000 kPa | 957 ± 2
383.15 K, 130000 kPa | 961.5 ± 2
383.15 K, 140000 kPa | 966.1 ± 2.1
393.15 K, 100 kPa | 864.7 ± 1.7
393.15 K, 10000 kPa | 875.3 ± 1.8
393.15 K, 20000 kPa | 885.1 ± 1.8
393.15 K, 30000 kPa | 893.9 ± 1.8
393.15 K, 40000 kPa | 902.1 ± 1.8
393.15 K, 50000 kPa | 909.5 ± 1.9
393.15 K, 60000 kPa | 916.6 ± 1.9
393.15 K, 70000 kPa | 923.2 ± 1.9
393.15 K, 80000 kPa | 929.5 ± 1.9
393.15 K, 90000 kPa | 935.3 ± 1.9
393.15 K, 100000 kPa | 941.1 ± 2
393.15 K, 110000 kPa | 946.2 ± 2
393.15 K, 120000 kPa | 951.4 ± 2
393.15 K, 130000 kPa | 956.3 ± 2
393.15 K, 140000 kPa | 960.9 ± 2
403.15 K, 100 kPa | 856.8 ± 1.7
403.15 K, 10000 kPa | 867.3 ± 1.8
403.15 K, 20000 kPa | 877.3 ± 1.8
403.15 K, 30000 kPa | 886.5 ± 1.8
403.15 K, 40000 kPa | 894.8 ± 1.8
403.15 K, 50000 kPa | 902.7 ± 1.9
403.15 K, 60000 kPa | 909.9 ± 1.9
403.15 K, 70000 kPa | 916.6 ± 1.9
403.15 K, 80000 kPa | 923.3 ± 1.9
403.15 K, 90000 kPa | 929.4 ± 1.9
403.15 K, 100000 kPa | 935 ± 2
403.15 K, 110000 kPa | 940.3 ± 2
403.15 K, 120000 kPa | 945.5 ± 2
403.15 K, 130000 kPa | 950.6 ± 2
403.15 K, 140000 kPa | 955.4 ± 2
